Laboratory results: patent publication US20060014938A1, “Stable aqueous colloidal lanthanide oxides” (priority 2004, published 2006)
Blank lines part the entries; values can stand above or below the compound they belong to.

How the values were obtained:
[1] = Source text: Table 1 summarizes characteristics of gadolinium DTPA (a previously described MRI contrast agent) and of compositions that are gadolinium oxide complexed with reduced dextran as provided herein, comparing characteristics of these to an ideal vascular contrast agent.
[2] = MRI of tubes using a T1 pulse sequence; conditions: 1.0 and 0.1 nM Gd, same molar concentrations
Protocol: Colloidal gadolinium Oxide prepared according to Example 9, and Gadolinium DTPA, each at a concentration of each of 1.0 and 0.1 nM Gd, were added to a volume of 1 mL in a 2 mL screw cap plastic tube, and were subjected to MRI using a T1 pulse sequence.
Row 3 is water, a negative control.

mice = conditions: cited from earlier work
[3] = test system: pig mesenchymal stem cells (MSC); assay: Cell viability test; type: cell-based
Protocol: FIG. 1 is a set of photomicrographs showing results from a cell viability test using Pig MSCs.
In all experiments colloid was incubated with cells in growth medium for 12 hours (at a concentration of 1 mg Eu/mL) which was then washed away.

[4] = Size and aqueous stability of colloid after crosslinking or surface modification; type: physicochemical
Protocol: The dextran covered lanthanide colloid was prepared according to Example 6 except that lanthanum chloride was substituted for samarium chloride. In a fume hood, to 40 mL of colloid was added 100 mL of 5M NaOH, 40 mL distilled water and 40 mL epichlorohydrin. The mixture was incubated at room temperature for about 24 hours with shaking to promote interaction of the organic phase (epichlorohydrin) and aqueous phase which includes the dextran covered colloid. Epichlorohydrin was removed by placing the colloid in a dialysis bag and dialyzing against 20 changes of distilled water of 20 liters each. After dialysis, the product was filtered through a 0.2 micron filter and stored at 4° C. The size and aqueous stability of the colloid suspension were unaffected by this treatment.
The reduced dextran covered colloid was prepared essentially according to Example 10 except that lutetium chloride was substituted for gadolinium chloride. In a fume hood, to 40 mL of colloid was added 100 mL of 5M NaOH, 40 mL of distilled water and 40 mL of epichlorohydrin. The mixture was incubated at room temperature for about 24 hours with shaking to promote interaction of the organic phase (epichlorohydrin) and aqueous phase which includes the dextran covered colloid. Epichlorohydrin was removed by placing the colloid in a dialysis bag and dialyzing against 5 changes of distilled water of 4 liters each. […]

Autoclavable without excipients [1]: Yes
Compound: O=C([O-])CN(CCN(CC(=O)[O-])CC(=O)[O-])CCN(CC(=O)[O-])CC(=O)[O-].[Gd+3] [Gadolinium DTPA]
Non toxic at vast excess [1]: Yes | potency as contrast agent (T1 weighted image) [2]: equally potent

Compound: [Cl][Gd]([Cl])[Cl] [gadolinium chloride]
most common lesions after injection (mice): mineral emboli in capillaries, accumulation of mineral in the mononuclear phagocytic system, hepatocellular necrosis, and lymphoid depletion, necrosis and mineralisation in the spleen

Compound: C[CH2][Hg][S]c1ccccc1C(=O)[O-].[Na+] [thimerasol]
state of cells (FIG. 1 Panel C) ([3]; added to growth medium, after 24 hours): severe deterioration | time to cell death ([3]; positive control): less than 24 hours

size and aqueous stability of the colloid suspension after the treatment [4]: unaffected
Compound: Gadolinium Oxide Colloid Modified with Biotin [Example 22]
